Source: patent US12458702B2 (NATIONAL TAIWAN UNIVERSITY, priority 2022, dated 2025)
“Also recorded” adds a separate entry of the source. Where two headings read alike, the source gives them in different places. Values belong to the compound of their own block, whether it stands above or below them.

Columns and labels:
[1] = Body weight changes in the CRC mice model; type: in vivo, BALB/c mice; settings: for body weight change, in words: during treatment in CRC mice model
Protocol: Azoxymethane (AOM)-induced murine CRC model was applied to model human CRC. BALB/c mice (6 weeks of age, male) were intraperitoneally (i.p.) injected once every two weeks with AOM (10 mg/kg body weight) or the PBS vehicle. Seven days after each AOM injection, 2% dextran sulfate sodium (DSS) was given in the drinking water for four days, followed by 3 days of regular water. This cycle was repeated three times. The mice were randomly divided into eight groups (n=5), on day 60 after the first AOM treatment. […] Irinotecan (20 mg/kg), compound 31 (20 mg/kg), and irinotecan+compound 17 (20 mg/kg of irinotecan and 14 mg/kg of compound 17) were injected i.p. q.o.d for two weeks. […] Tumor volumes and body weights were recorded at sacrifice. The tumors were counted under a dissecting microscope, and the area covered by tumors was measured by imaging software (AxioVision LE 4.8.2.0).

[2] = Organ biodistribution in mice (UPLC-MS/MS); type: in vivo, BALB/c mice; settings: 1 hour post i.p. injection; for organ distribution of 5-FU, in words: compound 7 50 mg/kg, free 5-FU 9.5 mg/kg
Protocol: (§1) In the following PK experiments, BALB/c mice (six weeks of age, male) were randomly divided into two groups (n=3). […] Blood samples were collected via femoral vein by syringes at 0, 1, 3, 5, 10, 15, 30, 45 min, 1, 2, 4, and 24 h after drug administration. 50 μL blood samples were collected into 100 μL extraction solvent (EtOAc/MeOH=1:1) and vortex for 30 sec. The supernatants were separated from the mixture by centrifugation at 10,000 rpm for 10 min and frozen at −30° C. pending UPLC-MS/MS analysis. For bio-distribution experiments, the entire dissected organs were placed into round-bottom after weighting, two-milliliter microcentrifuge tubes with 1 mL of extraction solvent (EtOAc/MeOH=1:1) and 7 mm stainless steel beads, then homogenized for 30 min. All of the containers were maintained at 4° C. throughout the process. The supernatants were separated from the mixture by centrifugation at 10,000 rpm for 10 min and frozen at −30° C. The 200 μL solvent from crude organ suspensions was removed by the dryer and then dissolved in 50 μL extraction solvent. All samples were stored at −30° C. and analyzed within 24 h. All of the samples were filtered through 0.22 μm PTFE membranes into 12×32 mm vials for UPLC-MS/MS analyses using 5-FU-^15N2 as a marker. Pharmacokinetic parameters were calculated using the WinNonlin Software (version 5.2, Pharsight, MO, USA.)
Analyses were performed on an ACQUITY UPLC I-Class/Xevo TQ-XS IVD System (Waters, Milford, MA, USA) from College of Public Health, National Taiwan University. The reverse phase BEH C18 (100 mm×2.1 mm, 1.7 μm, Waters) and VanGuard BEH C18 (5 mm×2.1 mm, 1.7 μm, Waters) precolumns were used to separate the analytes. All data were acquired by MassLynx V4.2. The mobile phase consisted of a 10 mM aqueous solution of ammonium acetate (A) and acetonitrile (B), set as follows: 0.00 min 98% A→1.00 min 98% A→3.00 min 10% A→4.50 min 10% A→4.60 min 98% A→6.00 min 98% A; at a rate of 0.5 mL/min for 6.00 min with 4 μL per injection. The column oven was maintained at 60° C. Multiple reaction monitoring (MRM) method was applied in quantification. […]

[3] = test system: metastatic colorectal cancer; settings: cited from earlier work
NHDF = assay: Cytotoxicity by SRB assay in low GLUT-1 normal cell line NHDF; type: cell-based; settings: Homo sapiens, low expression GLUT-1 normal cell line
Protocol: (§2) The fraction of cell survival was calculated as follows. Survival fraction=(OD treated−blank)/(OD control−blank). […] Each experiment was repeated three times.

[4] = test system: orthotopic CRC mice model; assay: Orthotopic AOM/DSS-induced CRC mice model, tumor area; type: in vivo, BALB/c mice
Protocol: Azoxymethane (AOM)-induced murine CRC model was applied to model human CRC. BALB/c mice (6 weeks of age, male) were intraperitoneally (i.p.) injected once every two weeks with AOM (10 mg/kg body weight) or the PBS vehicle. Seven days after each AOM injection, 2% dextran sulfate sodium (DSS) was given in the drinking water for four days, followed by 3 days of regular water. This cycle was repeated three times. The mice were randomly divided into eight groups (n=5), on day 60 after the first AOM treatment. […] Tumor volumes and body weights were recorded at sacrifice. The tumors were counted under a dissecting microscope, and the area covered by tumors was measured by imaging software (AxioVision LE 4.8.2.0).

[5] = Plasma pharmacokinetics in mice (UPLC-MS/MS); type: in vivo, BALB/c mice; settings: for T. of 5-FU: 5-FU measured in plasma
Protocol: as §1
Analyses were performed on an ACQUITY UPLC I-Class/Xevo TQ-XS IVD System (Waters, Milford, MA, USA) from College of Public Health, National Taiwan University. The reverse phase BEH C18 (100 mm×2.1 mm, 1.7 μm, Waters) and VanGuard BEH C18 (5 mm×2.1 mm, 1.7 μm, Waters) precolumns were used to separate the analytes. All data were acquired by MassLynx V4.2. The mobile phase consisted of a 10 mM aqueous solution of ammonium acetate (A) and acetonitrile (B), set as follows: 0.00 min 98% A→1.00 min 98% A→3.00 min 10% A→4.50 min 10% A→4.60 min 98% A→6.00 min 98% A; at a rate of 0.5 mL/min for 6.00 min with 4 μL per injection. The column oven was maintained at 60° C. Multiple reaction monitoring (MRM) method was applied in quantification. Mass spectrometer parameters were as follows: capillary voltage, 3.0 kV/3.0 kV, respectively, for positive/negative ion mode; ion source temperature, 120° C.; desolvation temperature, 450° C.; cone gas flow (N2), 50 L/h; desolvation gas flow (N2), 700 L/h; multiplier, 650 V; and collision gas pressure (Ar), 3−4×10^−3 mbar.

HCT-116 = assay: Cytotoxicity by SRB assay in HCT-116 cells; type: cell-based, human
Protocol: as §2

[6] = Stability and drug release in GSH (RP-HPLC); type: in vitro ADME
Protocol: […] After incubation for the indicated time, samples were centrifuged to collect the clear supernatant and stored at −30° C. until analysis. RP-HPLC injections were carried out at the specified conditions, and the area of peak was integrated for further calculation.

[7] = Human plasma stability (RP-HPLC); type: in vitro ADME; settings: 95% human plasma, 37° C.
Protocol: To access human plasma stability, synthesized conjugates were prepared in 95% human plasma. […] The mixture was centrifuged at 13,000 rpm for 5 min. […] For compounds 30 and 31, they were dissolved in DMA and added GSH (11.2 mM or 11.2 μM) solution which was prepared in sodium acetate buffer (10 mM, pH 5.0) in the ratio of 50/40 (v/v, drug in DMA/GSH solution) for final GSH of 5 mM or 5 μM in pH 7.0, respectively. After incubation for the indicated time, samples were centrifuged to collect the clear supernatant and stored at −30° C. until analysis. RP-HPLC injections were carried out at the specified conditions, and the area of peak was integrated for further calculation.

HT-29 = assay: Cytotoxicity by SRB assay in HT-29 cells
Protocol: Cancer cell lines were obtained from ATCC unless otherwise noted. HT-29 and HCT-116 cells were cultured in Dulbecco's Modified Eagle Medium (DMEM, Thermo Fisher Scientific) with 10% fetal bovine serum (FBS, Thermo Fisher Scientific) and 1% antibiotic-antimycotic (Thermo Fisher Scientific).
Briefly, CRC cells were seeded at a density of 5×10^3 cells/well in 96-well microtiter plates (100 μL/well), separated into two groups with or without GSH. After incubation for 24 hours, the culture medium was replaced by fresh medium (100 μL). […] After incubation, 10% cold trichloroacetic acid was gently added to each well and incubated at 4° C. for 1 h. The medium was removed, carefully washed with water, and dried at room temperature. […] The optical density (O.D.) was measured at 510 nm with Multi-Mode Microplate Reader (SpectraMax Paradigm, Beckman Coulter, U.S.). The fraction of cell survival was calculated as follows. Survival fraction=(OD treated−blank)/(OD control−blank). […] Each experiment was repeated three times.

[8] = test system: CRC cell lines HCT-116 and HT-29; assay: Cytotoxicity against CRC cell lines, summary over both lines (SRB assay); type: cell-based, human; settings: for cytotoxicity against CRC cell lines, in words: HCT-116 and HT-29, with or without GSH
Protocol: as §2

pH stability analysis = type: physicochemical
[9] = 5-FU series, 50 mg/kg i.p. once every 3 days for 3 weeks
[10] = Homo sapiens, HCT-116, 48 h, w/o GSH, read-out: IC50 HCT-116 w/o GSH
[11] = Homo sapiens, HT-29, 48 h, read-out: IC50 HT-29 5 mM GSH
[12] = Homo sapiens, HT-29, 48 h, read-out: IC50 HT-29 w/o GSH

T. of 5-FU ([5]; i.p. injection): 10 min
Compound: O=c1[nH]cc(F)c(=O)[nH]1 [5-FU, 5-fluorouracil, reference compound]
loss of body weight ([1]; free 5-FU 50 mg/kg i.p., after injection): about 10%
organ distribution of 5-FU, in words [2]: distributed in stomach, spleen, and kidney
mean response rate of patients ([3]; 5-FU-based chemotherapy): approximately 23%
IC50 (NHDF): 70.4 ± 7.2 µM
reduction of tumor volume [4, 9]: 33%

plasma concentration of compound 7 after 5 min, in words ([5]; i.p. 50 mg/kg): below the detection limit
plasma concentration of 5-FU after 2 h, in words ([5]; i.p. injection): undetectable
T. of 5-FU ([5]; i.p. injection): 45 min
time within which 5-FU released from compound 7 was detected in blood ([5]; i.v. 50 mg/kg): ≤ 2 h
plasma concentration of compound 7 after 30 min, in words ([5]; i.v. 50 mg/kg, lower detection limit=0.003 μg/mL, detectable again after 45 min and 4 h): undetectable
degradation after 48 h ([6]; 5 μM GSH, 48 h): 30%
cleavage percentage after 4 hours ([6]; 1 mM GSH): ~10%
cleavage percentage after 4 hours ([6]; 5 mM GSH): up to 60%
half-life at 2.5 mM ([6]; PBS containing 1 mM GSH, pH 7.4, half-life at 1 mM GSH, 1 mM GSH, PBS pH 7.4): 10.3 h
half-life at 2.5 mM ([6]; PBS containing GSH, pH 7.4, highly reductive environments, read-out: half-lives in highly reductive environments): < 5 h
half-life in human plasma [7]: 13 h
Compound: O=C(CCCSSCCOCCOCCOc1cc(O)c(C(=O)CCc2ccc(O)cc2)c(O)c1)OCn1cc(F)c(=O)[nH]c1=O [Compound 7, (5-Fluoro-2,4-dioxo-3,4-dihydropyrimidin-1(2H)-yl)methyl 4-((2-(2-(2-(3,5-dihydroxy-4-(3-(4-hydroxyphenyl)propanoyl)phenoxy)ethoxy)ethoxy)ethyl)disulfanyl)butanoate]
body weight change, in words [1]: without body weight loss; also recorded: no significant change in the body weight
organ distribution of the compound, in words ([2]; 50 mg/kg): distributed in the stomach, colon, heart, and liver
organ distribution of 5-FU, in words [2]: detected mainly in colon, with small amounts in the kidney and stomach
IC50 (NHDF): 90 ± 2.6 µM
reduction of tumor volume [4, 9]: 67%
tumor suppression (tumor area), in words ([4]; 5-FU series, i.p. once every three days for three weeks, compound 7 and 5-FU 50 mg/kg, 5-FU 10 mg/kg + compound 17 30 mg/kg): better tumor suppression than 5-FU
IC50 (HCT-116; Homo sapiens, HCT-116, read-out: IC50 HCT-116 5 mM GSH, 48 h, 5 mM GSH): 10.5 µM
IC50 (HCT-116; [10]): 21.2 ± 1.69 µM
IC50 (HT-29; [11]): 3.8 µM
IC50 (HT-29; [12]): 19.6 ± 3.86 µM

Compound: O=C(CCc1cn(CCOCCOCCOc2cc(O)c(C(=O)CCc3ccc(O)cc3)c(O)c2)nn1)OCn1cc(F)c(=O)[nH]c1=O [Compound 9]
cytotoxicity against CRC cell lines, in words [8]: poorly cytotoxic
pH stability, in words (pH stability analysis; pH 4-5): stable
pH stability, in words (pH stability analysis; pH >7): prone to fully degrade
IC50 (HCT-116; [10]): > 100 µM
release of 5-FU, in words ([6]; 5 mM GSH, after 48 h): Little 5-FU was released
half-life [7]: 3.6 h
IC50 (HT-29; [12]): 85 ± 9.1 µM

Compound: CCc1c2c(nc3ccc(OC(=O)OCCSSCCOCCOCCOc4ccc(O)c(C(=O)CCc5ccc(O)cc5)c4O)cc13)-c1cc3c(c(=O)n1C2)COC(=O)[C@]3(O)CC [Compound 31, (S)-4,11-diethyl-4-hydroxy-3,14-dioxo-3,4,12,14-tetrahydro-1H-pyrano[3′,4′:6,7]indolizino[1,2-b]quinolin-9-yl(2-((2-(2-(2-(2,4-dihydroxy-3-(3-(4-hydroxyphenyl)propanoyl)phenoxy)ethoxy)eyhoxy)ethyl)disulfanyl)ethyl) carbonate]
cytotoxicity against CRC cell lines, in words [8]: less or similar cytotoxicity
body weight change, in words [1]: did not decrease the body weight; also recorded: no significant change in the body weight
reduction of tumor volume ([4]; SN-38 series, 20 mg/kg i.p. once every two days for two weeks): 70%
anti-tumor efficacy (tumor area), in words ([4]; SN-38 series, i.p. once every two days for two weeks, 20 mg/kg, irinotecan 20 mg/kg + compound 17 14 mg/kg): better anti-tumor efficacy than irinotecan
IC50 (HCT-116; 72 h, prepared in DMA, w/o GSH, read-out: IC50 HCT-116 w/o GSH): 0.00287 ± 0.00019 µM
IC50 (HCT-116; read-out: IC50 HCT-116 5 mM GSH, 72 h, prepared in DMA, 5 mM GSH): 0.00259 ± 0.00012 µM
degraded after 48 h ([6]; 0 and 5 μM GSH, 48 h): 10%
degraded to SN-38 after 48 h ([6]; 5 mM GSH, 48 h): over 90%
half-life in human plasma [7]: 0.833 h
IC50 (HT-29; read-out: IC50 HT-29 5 mM GSH, 48 h, prepared in DMA, 5 mM GSH): 0.0114 ± 0.00103 µM
IC50 (HT-29; read-out: IC50 HT-29 w/o GSH, 48 h, prepared in DMA, w/o GSH): 0.0163 ± 0.00131 µM

Compound: CCc1c2c(nc3ccc(OC(=O)N4CCC(N5CCCCC5)CC4)cc13)-c1cc3c(c(=O)n1C2)COC(=O)[C@]3(O)CC [Irinotecan (39), irinotecan, reference compound]
IC50 ([8]; Homo sapiens, HCT-116 and HT-29, over Tables 1 to 3, read-out: IC50 in CRC cells): 0.3 to 8.5 µM
response rate ([3]; phase II, single-agent, patients resistant to fluorouracil): about 27%
IC50 (HCT-116; Homo sapiens, HCT-116, read-out: IC50 HCT-116 5 mM GSH, 72 h, prepared in DMA, 5 mM GSH): 0.32 ± 0.02 µM
IC50 (HCT-116; Homo sapiens, HCT-116, 48 h, prepared in DMSO, read-out: IC50 HCT-116): 3.69 ± 0.24 µM
IC50 (HCT-116; Homo sapiens, HCT-116, 72 h, prepared in DMA, w/o GSH, read-out: IC50 HCT-116 w/o GSH): 0.36 ± 0.01 µM
IC50 (HT-29; Homo sapiens, HT-29, 48 h, read-out: IC50 HT-29): 8.51 ± 1.86 µM
IC50 (HT-29; [11]): 6.44 ± 0.3 µM
IC50 (HT-29; [12]): 5.61 ± 0.11 µM
